In patent US20060270727A1, “Small molecule therapeutics and uses therefor” (priority 2005, published 2006):
Where two headings read alike, the source gives them in different places.

Experiments:
[1] = system: sticky DNA in plasmid pRW4886, two tracts of (GAA)176; test: Sticky DNA disruption, EcoNI digestion and agarose gel; assay type: biochemical; conditions: 37° C., 1 hr
Experimental: Influence of Polyamides on Sticky DNA Conformation. Plasmid pRW4886, which contains two tracts of (GAA)176 (SEQ ID NO: ______) in a direct repeat orientation (Vetcher et al., 2002b, Id)., and forms sticky DNA, was treated with polyamides at concentrations of 0-50 μM at 37° C. for 1 hr. Restriction digestion with EcoNI following the polyamide incubation enabled visualization of the presence or absence of an EcoNI cleaved sticky DNA band that runs with decreased mobility compared to the linearized plasmid on 1% agarose gels. Quantitation was by densitometric analysis using Fluor Chem version 3.04 (Alpha Innotech Corp).
The capacity of sequence-specific polyamides to disrupt the intramolecular sticky DNA structure formed by GAA repeat tracts was investigated. Plasmids harboring the sticky DNA structure are visualized by gel electrophoresis after restriction endonuclease cleavage, by methods well known in the art. […] Plasmid pRW4886, which contains two tracts of (GAA)176 (SEQ ID NO: ______) in a direct repeat orientation (Vetcher et al., 2002b, Id.), was incubated with each of polyamides FA1, FA2, FA3 and FA4 at concentrations ranging from 0-50 μM. The polyamide-bound DNA was then digested with EcoNI and subjected to electrophoresis on 1% agarose gels to determine the amount of EcoNI cleaved sticky DNA retarded band present. Incubation of pRW4886 DNA with FA3 shifted the equilibrium from a maximum amount of sticky DNA to a complete loss of the EcoNI cleaved sticky DNA retarded band at a concentration of 50 nM. […] For FA1, a 1 μM concentration was needed to dissociate the DNA-DNA structure-forming region. […] Since sticky DNA inhibits transcription (Ohshima et al., Id.; Sakamoto et al., 2001, J. Biol. Chem. 276:27171-27177), and since the polyamides destabilize this conformation by shifting the structural equilibrium to duplex B-type DNA, it is highly likely that the increases in frataxin mRNA observed with polyamide FA1 are due to this structural transition.

[2] = system: GM15850 FRDA lymphoid cells; test: DNA microarray of global gene expression, FRDA cells; assay type: cell-based, human; conditions: for number of genes with affected mRNA levels: P≦0.005; for gene expression profile approaching that of untreated GM15851 cells, in words: FA1 at 1 μM, FA2 at 2 μM
Experimental: Effects of Polyamides on Global Gene Expression. DNA microarray analyses (see Example 10) were performed with RNA isolated from GM15850 FRDA and GM15851 normal lymphoid cells that were either untreated or treated with polyamides FA1 (at 1 and 2 μM) or FA2 (at 2 μM) for 7 days on Affymetrix Human Genome U133 Plus 2.0 GeneChips®. These chips contain […] oligonucleotides representing all or nearly all of the genes in the human genome). Experiments were conducted according to manufacturer guidelines. […] Although more genes were judged affected by FA1 at 1 μM than at 2 μM, this difference is largely due to genes whose mRNA levels change by less than […] in either direction, and thus are not highly significant. At 2 μM FA1, 15 genes were increased in expression by greater than 50% and one gene was decreased by 45%. […] For GM15851 cells, two genes were up regulated by FA1, and no genes were down regulated. (Note that the probability that the genes affected in GM15851 cells would be judged significant by chance at P≦0.005 is 0.8-1.0, based on analysis with BRB ArrayTools). […] Strikingly, binding sites for FA1 (5′-AAGAAGAAG-3′, SEQ ID NO: ______) are present in 18/20 genes whose mRNA levels are increased by 1.2-fold or greater in GM15850 cells, although this sequence would be expected to appear at random only once per 262,000 bp in genomic DNA.
DNA Microarrays. FRDA and control lymphoid cells (i.e., lines GM15850 and GM15851, respectively) were incubated with polyamides FA1 (at 1 or 2 μM) or FA2 (at 2 μM), or in the absence of polyamide, in triplicate for seven days prior to RNA purification and microarray analysis. Affymetrix U133A Plus 2.0 GeneChips® were hybridized in groups of eight for each of the three replicates. Raw GeneChip® data were normalized with RMAExpress (Bolstad et al., 2003, Bioinformatics 19:185-193) and the normalized data was filtered to remove probesets called absent on 24 of 24 chips from class comparisons. The Affymetrix probeset-level data was imported to BRB Arraytools (v3.3.0 Beta 3a) selecting the U133 chips used in the experiment and leaving all filters off. For class comparisons between groups of arrays, unpaired samples were used and the random variance model was selected, with the univariate significance threshold set to 0.005. The restrictions for the univariate test were maintained as the default values of 10 for the maximum number of false discovered genes, 0.1 for the maximum proportion of false discoveries, and a 90% confidence level. Because of poor data correlation in one set of replicates, class comparisons were performed using all chips for the control group versus two of the three replicates for the treatment group (i.e., five groups are the minimum number required for class comparisons).

[3] = target: GAA·TTC duplex repeats in the frataxin gene; radiolabeled PCR product containing a (GAA)6 sequence; test: Quantitative DNase I footprinting on (GAA)6 DNA; assay type: binding
Description: Targeting GAA Repeat DNA with Polyamides. β-Alanine linked polyamides FA1-FA6 were synthesized (see Example 6) with sequence, theoretical DNA binding site, theoretical DNA binding site SEQ ID NO: ______) and binding affinity as shown in Table 1. […] Those of skill in the art will recognize that this value may be an underestimation of the affinity of this molecule for GAA repeat DNA since the KD measurements are limited by a minimum DNA concentration of ˜2 pM in the binding reaction. Radiolabeling of nucleic acid incorporated γ^32P ATP and polynucleotide kinase used standard procedures.
Polyamlde Synthesis and Characterization. Polyamides were synthesized by solid phase methods (Urbach & Dervan, Id.; Baird & Dervan, 1996, J. Am. Chem. Soc. 118:6141-6146) and their identity and purity verified by MALDI-TOF MS and analytical HPLC, using methods well known in the art. Fluorescent conjugates were prepared by coupling BODIPY (Molecular Probes) to the carboxyl-terminus (Best et al., 2003, Proc. Natl. Acad. Sci. U.S.A. 100:12063-12068). Binding affinities for match and mismatch sites were determined by quantitative DNase I footprinting (Trauger & Dervan, Id). A plasmid harboring six GAA repeats was constructed by cloning the oligonucleotide
in the pCR2.1 TOPO vector (Invitrogen, Calif.), and a 117 bp singly end-labeled PCR product was generated from this plasmid with the following oligonucleotides:
where the second oligonucleotide was labeled with γ-^32P ATP and polynucleotide kinase, using standard procedures, to generate a PCR product labeled on the GAA strand. A 204 bp singly end-labeled PCR product was derived from plasmid pMP142 DNA, containing 33 GAA repeats (Ohshima et al., Id.), with following oligonucleotides: […]

[4] = (GAA)6 DNA, values in text, read-out: apparent dissociation constant (KD)
[5] = quantitative DNase I footprinting, mean and standard deviation, minimum of two determinations, read-out: Binding affinity (KD)

Compound	concentration needed to affect or dissociate sticky DNA [1]	transcript levels for frataxin (microarray) ([2]; 2 μM, 7 days)	number of genes with affected mRNA levels ([2]; 2 μM, 7 days)	gene expression profile approaching that of untreated GM15851 cells, in words [2]	Kd [3, 4]	reduction of binding affinity vs match polyamide ([3]; mismatch vs match polyamide (FA2 vs FA1, FA4 vs FA3))	Kd [3, 5]	genes with comparable changes (>50% increase or 45% decrease) in mRNA levels ([2]; 1 μM)	number of genes with affected mRNA levels ([2]; 1 μM, 7 days)	frataxin mRNA level as % of that found in GM15851 cells (microarray) ([2]; 2 μM)	genes decreased in expression (by 45%) ([2]; 2 μM)	genes increased in expression by greater than 50% ([2]; 2 μM)	increase of frataxin mRNA (microarray) ([2]; 2 μM, 7 days)	slope of gene expression profile correlation vs untreated GM15851 cells ([2]; 2 μM, untreated FRDA cells 0.97)
CN(C)CCCNC(=O)CCNC(=O)c1cc(NC(=O)CCNC(=O)c2nc(NC(=O)c3nc(NC(=O)CCNC(=O)c4cc(NC(=O)c5nccn5C)cn4C)cn3C)cn2C)cn1C [FA2, ImPyβImImβPyβDp]	> 100 µM	not changed	three genes	not seen	> 100 nM	greater than three orders of magnitude	> 100 nM							
CN(C)CCCNC(=O)CCNC(=O)c1nc(NC(=O)CCNC(=O)c2cc(NC(=O)c3nc(NC(=O)CCNC(=O)c4cc(NC(=O)c5nccn5C)cn4C)cn3C)cn2C)cn1C [FA1, ImPyβImPyβImβDp]	1 µM		16 genes	seen to a lesser degree	0.1 nM		0.11 ± 0.02 nM	three genes	51 genes	42%	one gene	15 genes	2.5 fold	0.69
